Tests used:
[1] = tested on: plant cells, such as soybean (SB-1), tobacco and Brassica sp.; assay: Inhibition of plant cell growth by deoxyadenosine and analogs in culture medium; assay type: cell-based
[2] = tested on: soybean cells (Glycine max) line SB-1; assay: Effect on growth of soybean cells in culture (dry weight increase); assay type: cell-based; settings: for Increase In Dry Weight: average after 6 days in culture
Description: Aliquots of cells were subcultured to medium containing either 0, 0.74 μM, 7.4 μM, 74 μM of 2'-deoxyadenosine and cultured for 6 days. The cells were then harvested on filters, oven dried and weighed.

[3] = tested on: tobacco (Nicotiana tabacum cv. Xenthi) leaf explants; assay: Effect on growth of tobacco leaf explants (fresh weight increase); assay type: cell-based; settings: average after 3 weeks in culture
Description: The fresh weight increase was determined after 3 weeks in culture.

[4] = tested on: leaf discs from Normal (non-transformed) plants; assay: Culture of leaf discs from non-transformed plants on selective media; assay type: cell-based, Nicotiana tabacum
Description: (§1) Leaf discs cut from Nicotiana tabacum cv. Xanthi were soaked in a dilution of an overnight culture of Agrobacterium/pDY18 for several seconds, blotted dry and placed on Murashige and Skoog medium containing Gamborg's (MS/B5 medium containing 30 g/l sucrose, 2 mg/l2,4-dichlorophenoxy acetic acid and […] phytoagar). After 2 days of co-cultivation the leaf discs were placed on medium containing ara-A (100 μM) or cordycepin (50 μM) as selective agents and 500 μg/ml carbenicillin to inhibit Agrobacterium growth. The shoots which were regenerated were transferred to rooting medium containing MS basal medium containing Gamborg's vitamins (MS/B5, Sigma), 30 g/l sucrose, 0.1 mg/l a-naphthalene acetic acid (NAA), 500 μg/ml carbenicillin and 100 μg/ml kanamycin and 6 g/l phytoagar, adjusted to pH 5.6. Regenerated plants were transferred to soil and grown at 25° C. in an 18/6 hrs day/night cycle. Two plants designated 18-2 and 18-3 were chosen for further study.
(§2) Leaf discs cut from plant 18-2, 18-3, and Normal (non-transformed) plants were cultured on agar MS agar media containing either no selective agent or ara-A (100 μM) or cordycepin (50 μM).

[5] = tested on: leaf discs from ADA transformed plants 18-2, 18-3; assay: Culture of leaf discs from ADA transformed plants on selective media; assay type: cell-based, Nicotiana tabacum
Description: as §1, §2

Row | Structure (SMILES) | growth of plant cells in presence of compound in culture medium [1] | Increase in Fresh Weight ([3]; 40 μM) | Increase in Fresh Weight ([3]; 80 μM) [g] | Increase in Fresh Weight ([3]; 160 μM) [g] | further results
1 | Nc1ncnc2c1ncn2[C@H]1CC[C@@H](CO)O1 [2'-3'-dideoxyadenosine] | inhibited | – | – | – | –
2 | Nc1ncnc2c1ncn2[C@H]1C[C@H](O)[C@@H](CO)O1 [2'-deoxyadenosine] | inhibited | 0.74 ± 0.058 g | 0.96 ± 0.050 | 0.32 ± 0.038 | Increase In Dry Weight ([2]; 0.74 μM): 6.05 mg; Increase In Dry Weight ([2]; 7.40 μM): 3.51 mg; Increase In Dry Weight ([2]; 74.00 μM): 1.93 mg; effect on growth of soybean cells ([2]; all three concentrations (0.74, 7.4, 74 μM), 6 days): inhibitory; Increase in Fresh Weight ([3]; 320 μM): 0.07 ± 0.005 g; Increase in Fresh Weight ([3]; 640 μM): 0.04 ± 0.003 g
3 | Nc1nc(N)c2ncn([C@@H]3O[C@H](CO)[C@@H](O)[C@H]3O)c2n1 [2,6-diaminopurine riboside] | inhibited | – | – | – | –
4 | Nc1nc(Cl)nc2c1ncn2[C@@H]1O[C@H](CO)[C@@H](O)[C@H]1O [2-chloroadenosine] | inhibited | – | – | – | –
5 | OC[C@H]1O[C@@H](n2cnc3c(Cl)ncnc32)[C@H](O)[C@@H]1O [6-chloropurine riboside] | inhibited | – | – | – | –
6 | COc1ncnc2c1ncn2[C@@H]1O[C@H](CO)[C@@H](O)[C@H]1O [6-methoxypurine riboside] | inhibited | – | – | – | –
7 | Nc1ncnc2c1ncn2[C@@H]1O[C@H](CO)[C@@H](O)[C@H]1O [Adenosine] | – | 0.95 ± 0.069 g | 0.81 ± 0.060 | 0.94 ± 0.056 | Increase in Fresh Weight ([3]; 320 μM): 0.57 ± 0.052 g
8 | Nc1ncnc2c1ncn2[C@@H]1O[C@H](CO)[C@@H](O)[C@@H]1O [Arabinofuranosyl, 9-B-D-arabinofuranosyl adenine] | inhibited | 0.10 ± 0.048 g | 0.05 ± 0.008 | 0.02 ± 0.001 | Increase in Fresh Weight ([3]; 5 μM): 0.56 ± 0.047 g; Increase in Fresh Weight ([3]; 10 μM): 0.32 ± 0.037 g; Increase in Fresh Weight ([3]; 20 μM): 0.23 ± 0.025 g; growth of tissues on selective medium ([4]; ara-A 100 μM): No growth was observed; growth of tissues on selective medium ([5]; transformed plant 18-2, ara-A 100 μM): proliferated; growth of tissues on selective medium ([5]; transformed plant 18-3, ara-A (100 μM)): proliferated
9 | Nc1ncnc2c1ncn2[C@@H]1O[C@H](CO)C[C@H]1O [Cordycepin, 3'-deoxyadenosine] | inhibited | 0.04 + 0.049 g | 0.02 ± 0.001 | 0.02 ± 0.001 | Increase in Fresh Weight ([3]; 5 μM): 0.61 ± 0.059 g; Increase in Fresh Weight ([3]; 10 μM): 0.10 ± 0.016 g; Increase in Fresh Weight ([3]; 20 μM): 0.06 ± 0.008 g; growth of tissues on selective medium ([4]; cordycepin 50 μM): No growth was observed; growth of tissues on selective medium ([5]; transformed plant 18-2, cordycepin 50 μM): proliferated; growth of tissues on selective medium ([5]; transformed plant 18-3, cordycepin (50 μM)): proliferated
10 | Nc1ncnc2c1ncn2[C@@H]1O[C@H](CO)[C@H](O)[C@H]1O [xyl-A, 9-B-D-xylofuranosyl adenine] | inhibited | – | – | – | –
